Measured values taken from the supplement of paper PMC10307832.

Assays:
Assay in all cases: relative viability (nuclei count vs DMSO), 5 days (fraction); higher = more cells survive
Shikonin + Crizotinib = compound: CC(C)=CC[C@@H](O)C1=CC(=O)c2c(O)ccc(O)c2C1=O [Shikonin] + C[C@@H](Oc1cc(-c2cnn(C3CCNCC3)c2)cnc1N)c1c(Cl)ccc(F)c1Cl [Crizotinib] (partner 1 µM)
Summary of the method: (§1)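 For relative viability, nuclei counts in treated wells were divided by those in vehicle wells. Lung cancer cell lines had been pin-tool dosed in 1536-well plates the day after seeding and cultured for 5 days, then fixed and stained in one step (final 0.05% Triton X-100, 1% formaldehyde, 1 ug/ml Hoechst) and imaged at 4×. Doses were one drug alone or a fixed anchor-drug dose plus five library-drug doses (not always all listed) in √10 steps, and values are duplicate-plate medians.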

[1] = compound: CC(C)N(CCCNC(=O)Nc1ccc(C(C)(C)C)cc1)C[C@H]1O[C@@H](n2ccc3c(N)ncnc32)[C@H](O)[C@@H]1O + COc1cccc2cc(-c3nc([C@H]4CC[C@H](C(=O)O)CC4)n4ncnc(N)c34)[nH]c12 [OSI-027] (partner 0.5 µM)
Summary of the method: as §1

Shikonin + Pemetrexed = compound: CC(C)=CC[C@@H](O)C1=CC(=O)c2c(O)ccc(O)c2C1=O [Shikonin] + Nc1nc2[nH]cc(CCc3ccc(C(=O)N[C@@H](CCC(=O)O)C(=O)O)cc3)c2c(=O)[nH]1 [Pemetrexed] (partner 0.2 µM)
Summary of the method: as §1

Shikonin + Luminespib = compound: CC(C)=CC[C@@H](O)C1=CC(=O)c2c(O)ccc(O)c2C1=O [Shikonin] + CCNC(=O)c1noc(-c2cc(C(C)C)c(O)cc2O)c1-c1ccc(CN2CCOCC2)cc1 [Luminespib] (partner 0.01 µM)
Summary of the method: as §1

Cell Line: NCI-H322M
- relative viability (Shikonin + Crizotinib; first compound 0.01 µM): 0.866
- relative viability (Shikonin + Crizotinib; first compound 0.1 µM): 0.997
- relative viability (Shikonin + Crizotinib; first compound 0.3162 µM): 0.855
- relative viability (Shikonin + Crizotinib; first compound 1 µM): 0.882
- relative viability ([1]; first compound 0.08 µM): 0.514
- relative viability ([1]; first compound 0.253 µM): 0.618
- relative viability ([1]; first compound 0.8 µM): 0.575
- relative viability ([1]; first compound 2.53 µM): 0.693
- relative viability ([1]; first compound 8 µM): 0.579
- relative viability (Shikonin + Pemetrexed; first compound 0.01 µM): 0.575
- relative viability (Shikonin + Pemetrexed; first compound 0.1 µM): 0.591
- relative viability (Shikonin + Pemetrexed; first compound 0.3162 µM): 0.6
- relative viability (Shikonin + Pemetrexed; first compound 1 µM): 0.777
- relative viability (Shikonin + Luminespib; first compound 0.01 µM): 0.942
- relative viability (Shikonin + Luminespib; first compound 0.1 µM): 0.855
- relative viability (Shikonin + Luminespib; first compound 0.3162 µM): 0.82
- relative viability (Shikonin + Luminespib; first compound 1 µM): 0.847

Cell Line: NCI-H358
- relative viability (Shikonin + Crizotinib; first compound 0.01 µM): 0.699
- relative viability (Shikonin + Crizotinib; first compound 0.1 µM): 0.484
- relative viability (Shikonin + Crizotinib; first compound 0.3162 µM): 0.619
- relative viability (Shikonin + Crizotinib; first compound 1 µM): 0.63
- relative viability ([1]; first compound 0.08 µM): 0.75
- relative viability ([1]; first compound 0.253 µM): 0.61
- relative viability ([1]; first compound 0.8 µM): 0.724
- relative viability ([1]; first compound 2.53 µM): 0.752
- relative viability ([1]; first compound 8 µM): 0.714
- relative viability (Shikonin + Pemetrexed; first compound 0.01 µM): 0.159
- relative viability (Shikonin + Pemetrexed; first compound 0.1 µM): 0.182
- relative viability (Shikonin + Pemetrexed; first compound 0.3162 µM): 0.172
- relative viability (Shikonin + Pemetrexed; first compound 1 µM): 0.154
- relative viability (Shikonin + Luminespib; first compound 0.01 µM): 0.467
- relative viability (Shikonin + Luminespib; first compound 0.1 µM): 0.369
- relative viability (Shikonin + Luminespib; first compound 0.3162 µM): 0.246
- relative viability (Shikonin + Luminespib; first compound 1 µM): 0.334

Cell Line: NCI-H441
- relative viability (Shikonin + Crizotinib; first compound 0.01 µM): 0.921
- relative viability (Shikonin + Crizotinib; first compound 0.1 µM): 0.782
- relative viability (Shikonin + Crizotinib; first compound 0.3162 µM): 0.887
- relative viability (Shikonin + Crizotinib; first compound 1 µM): 0.771
- relative viability ([1]; first compound 0.08 µM): 0.589
- relative viability ([1]; first compound 0.253 µM): 0.587
- relative viability ([1]; first compound 2.53 µM): 0.735
- relative viability ([1]; first compound 8 µM): 0.661
- relative viability (Shikonin + Pemetrexed; first compound 0.01 µM): 0.282
- relative viability (Shikonin + Pemetrexed; first compound 0.1 µM): 0.223
- relative viability (Shikonin + Pemetrexed; first compound 0.3162 µM): 0.252
- relative viability (Shikonin + Pemetrexed; first compound 1 µM): 0.266
- relative viability (Shikonin + Luminespib; first compound 0.01 µM): 0.349
- relative viability (Shikonin + Luminespib; first compound 0.1 µM): 0.339
- relative viability (Shikonin + Luminespib; first compound 0.3162 µM): 0.371
- relative viability (Shikonin + Luminespib; first compound 1 µM): 0.323

Cell Line: NCI-H460
- relative viability (Shikonin + Crizotinib; first compound 0.01 µM): 1.37
- relative viability (Shikonin + Crizotinib; first compound 0.1 µM): 1.38
- relative viability (Shikonin + Crizotinib; first compound 0.3162 µM): 1.26
- relative viability (Shikonin + Crizotinib; first compound 1 µM): 0.884
- relative viability ([1]; first compound 0.08 µM): 0.62
- relative viability ([1]; first compound 0.253 µM): 0.551
- relative viability ([1]; first compound 0.8 µM): 0.693
- relative viability ([1]; first compound 2.53 µM): 0.564
- relative viability ([1]; first compound 8 µM): 0.601
- relative viability (Shikonin + Pemetrexed; first compound 0.01 µM): 0.0561
- relative viability (Shikonin + Pemetrexed; first compound 0.1 µM): 0.0603
- relative viability (Shikonin + Pemetrexed; first compound 0.3162 µM): 0.06
- relative viability (Shikonin + Pemetrexed; first compound 1 µM): 0.063
- relative viability (Shikonin + Luminespib; first compound 0.01 µM): 0.0384
- relative viability (Shikonin + Luminespib; first compound 0.1 µM): 0.034
- relative viability (Shikonin + Luminespib; first compound 0.3162 µM): 0.0299
- relative viability (Shikonin + Luminespib; first compound 1 µM): 0.0321

Cell Line: NCI-H522
- relative viability ([1]; first compound 0.08 µM): 0.58
- relative viability ([1]; first compound 0.253 µM): 0.895
- relative viability ([1]; first compound 0.8 µM): 0.848
- relative viability ([1]; first compound 2.53 µM): 0.643
- relative viability ([1]; first compound 8 µM): 0.809
- relative viability (Shikonin + Pemetrexed; first compound 0.01 µM): 0.937
- relative viability (Shikonin + Pemetrexed; first compound 0.1 µM): 1
- relative viability (Shikonin + Pemetrexed; first compound 0.3162 µM): 1.3
- relative viability (Shikonin + Pemetrexed; first compound 1 µM): 1.22
- relative viability (Shikonin + Luminespib; first compound 0.01 µM): 1.09
- relative viability (Shikonin + Luminespib; first compound 0.1 µM): 0.917
- relative viability (Shikonin + Luminespib; first compound 0.3162 µM): 1.29
- relative viability (Shikonin + Luminespib; first compound 1 µM): 1.31

Cell Line: NCI-H727
- relative viability (Shikonin + Crizotinib; first compound 0.01 µM): 1.02
- relative viability (Shikonin + Crizotinib; first compound 0.1 µM): 0.991
- relative viability (Shikonin + Crizotinib; first compound 0.3162 µM): 0.727
- relative viability (Shikonin + Crizotinib; first compound 1 µM): 0.589
- relative viability ([1]; first compound 0.08 µM): 0.635
- relative viability ([1]; first compound 0.253 µM): 0.597
- relative viability ([1]; first compound 0.8 µM): 0.521
- relative viability ([1]; first compound 2.53 µM): 0.495
- relative viability ([1]; first compound 8 µM): 0.666
- relative viability (Shikonin + Luminespib; first compound 0.01 µM): 0.412
- relative viability (Shikonin + Luminespib; first compound 0.1 µM): 0.462
- relative viability (Shikonin + Luminespib; first compound 0.3162 µM): 0.233
- relative viability (Shikonin + Luminespib; first compound 1 µM): 0.329

Cell Line: NCI-H1299
- relative viability (Shikonin + Crizotinib; first compound 0.01 µM): 0.958
- relative viability (Shikonin + Crizotinib; first compound 0.1 µM): 1.09
- relative viability (Shikonin + Crizotinib; first compound 0.3162 µM): 0.965
- relative viability (Shikonin + Crizotinib; first compound 1 µM): 0.922

Cell Line: NCI-H1395
- relative viability ([1]; first compound 0.08 µM): 0.67
- relative viability ([1]; first compound 0.253 µM): 0.631
- relative viability ([1]; first compound 0.8 µM): 0.57
- relative viability ([1]; first compound 2.53 µM): 0.62
- relative viability ([1]; first compound 8 µM): 0.719
- relative viability (Shikonin + Pemetrexed; first compound 0.01 µM): 0.84
- relative viability (Shikonin + Pemetrexed; first compound 0.1 µM): 0.944
- relative viability (Shikonin + Pemetrexed; first compound 0.3162 µM): 0.85
- relative viability (Shikonin + Pemetrexed; first compound 1 µM): 1.01
- relative viability (Shikonin + Luminespib; first compound 0.01 µM): 0.672
- relative viability (Shikonin + Luminespib; first compound 0.1 µM): 0.793
- relative viability (Shikonin + Luminespib; first compound 0.3162 µM): 0.744
- relative viability (Shikonin + Luminespib; first compound 1 µM): 0.655

Cell Line: NCI-H1648
- relative viability ([1]; first compound 0.08 µM): 0.277
- relative viability ([1]; first compound 0.253 µM): 0.258
- relative viability ([1]; first compound 0.8 µM): 0.247
- relative viability ([1]; first compound 2.53 µM): 0.247
- relative viability ([1]; first compound 8 µM): 0.293
- relative viability (Shikonin + Pemetrexed; first compound 0.01 µM): 0.793
- relative viability (Shikonin + Pemetrexed; first compound 0.3162 µM): 0.979
- relative viability (Shikonin + Pemetrexed; first compound 1 µM): 0.742

Cell Line: NCI-H1703
- relative viability (Shikonin + Crizotinib; first compound 0.01 µM): 0.873
- relative viability (Shikonin + Crizotinib; first compound 0.1 µM): 0.671
- relative viability (Shikonin + Crizotinib; first compound 0.3162 µM): 0.633
- relative viability (Shikonin + Crizotinib; first compound 1 µM): 0.512

Cell Line: NCI-H1793
- relative viability ([1]; first compound 0.08 µM): 0.27
- relative viability ([1]; first compound 0.8 µM): 0.228
- relative viability ([1]; first compound 2.53 µM): 0.274
- relative viability ([1]; first compound 8 µM): 0.291
- relative viability (Shikonin + Pemetrexed; first compound 0.01 µM): 0.808
- relative viability (Shikonin + Pemetrexed; first compound 0.1 µM): 1.05
- relative viability (Shikonin + Pemetrexed; first compound 0.3162 µM): 0.798
- relative viability (Shikonin + Pemetrexed; first compound 1 µM): 1.11
- relative viability (Shikonin + Luminespib; first compound 0.01 µM): 0.164
- relative viability (Shikonin + Luminespib; first compound 0.1 µM): 0.196
- relative viability (Shikonin + Luminespib; first compound 0.3162 µM): 0.155
- relative viability (Shikonin + Luminespib; first compound 1 µM): 0.535

Cell Line: NCI-H2342
- relative viability ([1]; first compound 0.08 µM): 0.736
- relative viability ([1]; first compound 0.253 µM): 0.643
- relative viability ([1]; first compound 0.8 µM): 0.611
- relative viability ([1]; first compound 2.53 µM): 0.61
- relative viability ([1]; first compound 8 µM): 0.607
- relative viability (Shikonin + Pemetrexed; first compound 0.01 µM): 0.808
- relative viability (Shikonin + Pemetrexed; first compound 0.1 µM): 0.852
- relative viability (Shikonin + Pemetrexed; first compound 0.3162 µM): 0.809
- relative viability (Shikonin + Pemetrexed; first compound 1 µM): 0.804
- relative viability (Shikonin + Luminespib; first compound 0.01 µM): 0.763
- relative viability (Shikonin + Luminespib; first compound 0.1 µM): 0.65
- relative viability (Shikonin + Luminespib; first compound 0.3162 µM): 0.752
- relative viability (Shikonin + Luminespib; first compound 1 µM): 0.702

Cell Line: SW 900
- relative viability ([1]; first compound 0.08 µM): 0.482
- relative viability ([1]; first compound 0.253 µM): 0.569
- relative viability ([1]; first compound 2.53 µM): 0.691
- relative viability ([1]; first compound 8 µM): 0.512
- relative viability (Shikonin + Pemetrexed; first compound 0.01 µM): 0.422
- relative viability (Shikonin + Pemetrexed; first compound 0.1 µM): 0.548
- relative viability (Shikonin + Pemetrexed; first compound 0.3162 µM): 0.468
- relative viability (Shikonin + Pemetrexed; first compound 1 µM): 0.535
- relative viability (Shikonin + Luminespib; first compound 0.01 µM): 0.192
- relative viability (Shikonin + Luminespib; first compound 0.1 µM): 0.173
- relative viability (Shikonin + Luminespib; first compound 0.3162 µM): 0.207
- relative viability (Shikonin + Luminespib; first compound 1 µM): 0.155
